Laboratory results from BindingDB's records for doi:10.1021/ml1002508 (2011).

Experiment: Agonist activity at androgen receptor expressed in mouse C2C12 cells assessed as osteoblast differentiation after 5 days

Cc1c(N[C@@H](c2nnc(-c3ccc(C#N)cc3)o2)[C@H](C)O)ccc(C#N)c1Cl [2-chloro-4-((1R,2S)-1-(5-(4-cyanophenyl)-1,3,4-oxadiazol-2-yl)-2-hydroxypropylamino)-3-methylbenzonitrile] showed an EC50 of 0.1 nM.
